Patent US9239331B2, “Method for predicting the response to HER2-directed therapy” (Ventana Medical Systems, Inc., priority 2002, dated 2016)

Tested on: breast cancer patients
Test: Patient response in breast cancer tissue microarray cohort: chemotherapy together with HERCEPTIN®, response from case histories at last follow-up
Type: in vivo, human
Settings: treatment following surgery (followed by Herceptin ®)
Method: Immunohistochemistry for detecting and measuring predictive biomarker expression, activation or both was performed as follows. HER2/neu, EGFR, HER3, IGFR, TGF-α, Heregulin (NDF), p-ERK, p-AKT, and p-S6 ribosomal protein or phosphorylation levels were quantified using alkaline phosphatase or peroxidase techniques and microscope-based image analysis of immunohistochemically stained slides (as described in Bacus et al., 1997, Analyt. Quant. Cytol. Histol. 19: 316-328). Quantification was by means of a CAS 200 image analyzer, as previously described (Bacus & Ruby, 1993, Pathol Annu, 28: 179-204). For the purpose of the analysis, tumors were classified as negative or positive for each antibody based upon the level of staining. Statistical analysis was performed using Systat to quantify frequencies and calculate Pearson Chi-squared tests of significance for interactions between variables. In all cases, the p value refers to the significance of the deviation of the distribution of samples from what would be expected based upon the overall population distribution. Comparisons were performed only on samples for which all relevant data were available. […] All patients had received post-surgical radiotherapy. The tissue samples in the array were taken before treatment. HER2/neu expression had been determined by using the […] system (DAKO, Carpinteria, Calif.) on the original biopsies for all patients. Patient response was based upon the case histories at last follow-up as decided by an independent pathologist provided by Clinomics.

COc1cccc2c1C(=O)c1c(O)c3c(c(O)c1C2=O)C[C@@](O)(C(=O)CO)C[C@@H]3O[C@H]1C[C@H](N)[C@H](O)[C@H](C)O1 [Doxorubicin]
disease-free or stable disease: 2% | relapse: 98%

CC(=O)O[C@H]1C(=O)[C@@]2(C)[C@H]([C@H](OC(=O)c3ccccc3)[C@]3(O)C[C@H](OC(=O)[C@H](O)[C@@H](NC(=O)c4ccccc4)c4ccccc4)C(C)=C1C3(C)C)[C@]1(OC(C)=O)CO[C@@H]1C[C@@H]2O [Paclitaxel]
disease-free or stable disease: 100% | relapse: 0%
